Laboratory results: US10544112B2, “Identification of ebsulfur analogues with broad-spectrum antifungal activity” (priority 2017, dated 2020)
≈ marks a conversion by molar mass, not a printed value. Like-named read-outs stand apart in the source and are kept apart here. Marks after values point to notes of the source that are not given here.

Assays:
[1] = system: C. albicans ATCC 64124 (strain B); experiment: microbe, parasite or virus in culture; assay type: cell-based, Candida albicans; settings: for MIC-0: strain B, compounds 1-4n and AmB, 48 h, RPMI 1640
Summary of the method: (§1)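 Broth microdilution per CLSI M27-A3 with minor modifications, in RPMI 1640 buffered to pH 7.0 with 0.165 M MOPS. Yeast inocula were grown in potato dextrose broth, diluted into RPMI to 5×10^3 CFU/mL, and exposed to two-fold dilutions from 12.5-0.02 μg/mL for 48 h at 35° C.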

[2] = system: C. albicans ATCC 90819(R) (strain D); experiment: microbe, parasite or virus in culture; assay type: cell-based, Candida albicans; settings: for MIC-0: strain D, compounds 1-4n and AmB, 48 h, RPMI 1640
Summary of the method: as §1

[3] = system: C. albicans ATCC MYA-1003(R) (strain G); experiment: microbe, parasite or virus in culture; assay type: cell-based, Candida albicans; settings: for MIC-0: strain G, compounds 1-4n and AmB, 48 h, RPMI 1640
Summary of the method: as §1

[4] = system: C. albicans ATCC MYA-1237(R) (strain F); experiment: microbe, parasite or virus in culture; assay type: cell-based, Candida albicans; settings: for MIC-0: strain F, compounds 1-4n and AmB, 48 h, RPMI 1640
Summary of the method: as §1

[5] = system: C. albicans ATCC MYA-2310(S) (strain E); experiment: Antifungal MIC determination (CLSI M27-A3, 96-well); assay type: cell-based, Candida albicans; settings: for MIC-0: strain E, compounds 1-4n and AmB, 48 h, RPMI 1640
Summary of the method: as §1

[6] = system: C. albicans ATCC MYA-2876(S) (strain C); experiment: as above; assay type: cell-based, Candida albicans; settings: for MIC-0: strain C, compounds 1-4n and AmB, 48 h, RPMI 1640
Summary of the method: as §1

[7] = system: Candida albicans ATCC 10231 (strain A); experiment: as above; assay type: cell-based; settings: for MIC-0: strain A, compounds 1-4n and AmB, 48 h, RPMI 1640
Summary of the method: as §1

[8] = system: Candida glabrata ATCC 2001 (strain H); experiment: as above; assay type: cell-based; settings: for MIC: Nakaseomyces glabratus; for MIC-0: compounds 1-4n and AmB, 48 h, RPMI 1640
Summary of the method: as §1

[9] = system: Candida krusei ATCC 6258 (strain I); experiment: as above; assay type: cell-based; settings: for MIC: Pichia kudriavzevii; for MIC-0: compounds 1-4n and AmB, 48 h, RPMI 1640
Summary of the method: as §1

[10] = system: Candida parapsilosis ATCC 22019 (strain J); experiment: as above; assay type: cell-based; settings: for MIC: Lodderomyces parapsilosis; for MIC-0: compounds 1-4n and AmB, 48 h, RPMI 1640
Summary of the method: as §1

[11] = system: Aspergillus nidulans ATCC 38163 (strain L); experiment: Antifungal MIC determination, filamentous fungi spores; assay type: cell-based; settings: for MIC-0: strain L, spores
Summary of the method: (§2)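 Broth microdilution per CLSI M27-A3 (modified) in RPMI 1640 buffered to pH 7.0 with 0.165 M MOPS; yeast inocula grown in PDB, Aspergillus spores from PDA cultures at 25° C. Final drug 12.5-0.02 μg/mL, inoculum 5×10^3 CFU/mL; incubation 48 h at 35° C.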

[12] = system: Aspergillus terreus ATCC MYA-3633 (strain M); experiment: as above; assay type: cell-based; settings: for MIC: Aspergillus terreus, read-out: MIC-0
Summary of the method: as §2

[13] = system: Aspergillus strains (K-M); experiment: Antifungal MIC, summary over Aspergillus strains; assay type: cell-based; settings: spores
Experimental: Fungal MIC determination experiments were performed using untreated 96-well plates (Corning). Cells were counted either by using a hemocytometer (Hausser Scientific, Horsham, Pa., USA) or by measuring optical density at attenuance of 600 nm (OD600) by using a Genesys 20 spectrophotometer (Thermo Scientific, Waltham, Mass., USA). Spectrophotometric and colorimetric measurements in 96-well plates were performed using a SpectraMax M5 spectrometer (Molecular Devices, Sunnyvale, Calif., USA).
Yeast strains Candida albicans ATCC 10231 (strain A), C. albicans ATCC 64124 (strain B), and C. albicans ATCC MYA-2876(S) (strain C) were kindly provided by Dr. Jon Y. Takemoto (Utah State University, Logan, UT, USA). C. albicans ATCC MYA-90819(R) (strain D), C. albicans ATCC MYA-2310(S) (strain E), C. albicans ATCC 1237(R) (strain F), C. albicans ATCC MYA-1003(R) (strain G), Candida glabrata ATCC 2001 (strain H), Candida krusei ATCC 6258 (strain I), and Candida parapsilosis ATCC 22019 (strain J) were obtained from the American Type Culture Collection (ATCC, Manassas, Va., USA). […]
The MIC values against fungal strains were determined based on a previously published protocol. MIC values for ebsulfur (2a) analogues against fungal cells were evaluated in 96-well plates as described in the CLSI document M27-A3 with minor modifications. […]

[14] = system: Aspergillus flavus ATCC MYA-3631 (strain K); experiment: Antifungal MIC determination, filamentous fungi spores; assay type: cell-based; settings: all compounds; for MIC: Aspergillus flavus, read-out: MIC-0
Summary of the method: as §2

[15] = system: C. albicans ATCC 64124 (strain B); assay type: cell-based, Candida albicans
Experimental: The efficiency of the compounds to kill C. albicans ATCC 64124 (strain B) was monitored using a previously published protocol. The cell suspensions were prepared to achieve an inoculum of approximately 1-4×10^5 CFU/mL in RPMI 1640 medium at 35° C. […] After fungal cell addition, at 0, 3, 6, 9, 12, and 24 h, the tubes were vortexed and 100 μL aliquots were removed from each solution, spread onto PDA plates, and incubated at 35° C. Colony counts were determined after 24 h of incubation. The experiments were performed in duplicate (FIG. 2).
Time-kill assays with ebsulfur (2a) and analogue 3a (FIG. 2) were performed to determine the rate of fungicidal activity of the compounds if the invention.

[16] = system: C. albicans ATCC 10231 (strain A); experiment: ROS production assay (DCFH-DA); assay type: cell-based, Candida albicans; settings: 1× and 2× MIC (H2O2 1 mM), 1-h treatment
Experimental: ROS production assay was performed as previously described with minor modifications. […] Once entering the cells, the DCFH-DA probe is first hydrolyzed to the non-fluorescent 2′,7′-dichlorodihydrofluorescein (DCFH) by cellular esterases. […] A colony of C. albicans ATCC 10231 (strain A) was used to inoculate 5 mL of PDB in a Falcon tube and grown overnight at 35° C. at 200 rpm.
Thus, whether the compounds of the invention would also induce ROS against C. albicans was studied. […] 2′,7′-dichlorodihydrofluorescin diacetate (DCFH-DA) was then used to detect and visualize ROS production (FIG. 5). As a positive control, cells were treated with H2O2, which is an inducer of hydroxyl radical formation.

[17] = system: Candida albicans ATCC 10231 (strain A); settings: azoles, previously reported (Shrestha 2015); cited from earlier work
[18] = system: C. albicans ATCC 64124 (strain B); settings: azoles, previously reported (Shrestha 2015); cited from earlier work
[19] = system: C. albicans ATCC MYA-2876(S) (strain C); settings: azoles, previously reported (Shrestha 2015); cited from earlier work
[20] = system: C. albicans ATCC 90819(R) (strain D); settings: azoles, previously reported (Shrestha 2015); cited from earlier work
[21] = system: C. albicans ATCC MYA-2310(S) (strain E); settings: azoles, previously reported (Shrestha 2015); cited from earlier work
[22] = system: C. albicans ATCC MYA-1237(R) (strain F); settings: azoles, previously reported (Shrestha 2015); cited from earlier work
[23] = system: C. albicans ATCC MYA-1003(R) (strain G); settings: azoles, previously reported (Shrestha 2015); cited from earlier work
[24] = system: Aspergillus nidulans ATCC 38163 (strain L); settings: azoles, previously reported (Shrestha 2015); cited from earlier work
[25] = Solubility in the RPMI 1640 medium used for MIC determination; settings: medium of MIC determination
[26] = Candida albicans, read-out: MIC-2
[27] = strain M, all compounds, spores
[28] = ATCC2001, strain H, azoles, read-out: MIC-2
[29] = ATCC6258, strain I, azoles, read-out: MIC-2
[30] = ATCC22019, strain J, azoles, read-out: MIC-2

SMILES: C[C@@H](c1ncncc1F)[C@](O)(Cn1cncn1)c1ccc(F)cc1F [VOR, voriconazole, reference compound]
- MIC ([1]; Candida albicans, ATCC64124, read-out: MIC-2): > 31.2 µg/mL
- MIC ([2]; Candida albicans, ATCC90819, read-out: MIC-2): 1.95 µg/mL (≈ 5.58 µM)
- MIC [3, 26]: 7.8 µg/mL (≈ 22.3 µM)
- MIC [4, 26]: 0.975 µg/mL (≈ 2.79 µM)
- MIC [5, 26]: 1.95 µg/mL (≈ 5.58 µM)
- MIC [6, 26]: 0.975 µg/mL (≈ 2.79 µM)
- MIC ([7]; Candida albicans, ATCC10231, read-out: MIC-2): 7.8 µg/mL (≈ 22.3 µM)
- MIC ([8]; ATCC2001, read-out: MIC-2): 0.06 µg/mL (≈ 0.172 µM)
- MIC ([9]; ATCC6258, read-out: MIC-2): 0.12 µg/mL (≈ 0.344 µM)
- MIC ([10]; ATCC22019, read-out: MIC-2): < 0.03 µg/mL
- MIC ([11]; Aspergillus nidulans, ATCC38163, read-out: MIC-0): 0.03 µg/mL (≈ 0.0859 µM)
- MIC [12]: 0.12 µg/mL (≈ 0.344 µM)
- MIC against Aspergillus strains K-M, range [13]: 0.03 to 0.24 µg/mL

SMILES: O=c1c2ccccc2[se]n1-c1ccccc1 [Compound 1, ebselen, reference compound]
- MIC-0 [1]: 12.5 µg/mL (≈ 45.6 µM)
- MIC-0 [2]: 1.56 µg/mL (≈ 5.69 µM)
- MIC-0 [3]: 12.5 µg/mL (≈ 45.6 µM)
- MIC-0 [4]: >12.5 µg/mL
- MIC-0 [5]: 3.13 µg/mL (≈ 11.4 µM)
- MIC-0 [6]: 12.5 µg/mL (≈ 45.6 µM)
- MIC-0 [7]: 12.5 µg/mL (≈ 45.6 µM)
- MIC-0 ([8]; strain H): 1.56 µg/mL (≈ 5.69 µM)
- MIC-0 ([9]; strain I): 1.56 µg/mL (≈ 5.69 µM)
- MIC-0 ([10]; strain J): 6.25 µg/mL (≈ 22.8 µM)
- MIC-0 [14]: 6.25 µg/mL (≈ 22.8 µM)
- MIC-0 [11]: 1.56 µg/mL (≈ 5.69 µM)
- MIC-0 [12, 27]: 1.56 µg/mL (≈ 5.69 µM)
- fungicidal or fungistatic effect ([15]; 1× MIC): potent fungicidal activity
- time of complete fungal cell death ([15]; 1× MIC): 6 h
- time from which completely fungicidal ([15]; 2× MIC): 3 h
- ROS induction (DCFH-DA fluorescence) [16]: highly fluorescent

SMILES: O=c1c2ccccc2sn1C1CCCCCCC1 [Compound 3n]
- MIC-0 [1]: 3.13 µg/mL (≈ 12 µM)
- MIC-0 [2]: 6.25 µg/mL (≈ 23.9 µM)
- MIC-0 [3]: 6.25 µg/mL (≈ 23.9 µM)
- MIC-0 [4]: 6.25 µg/mL (≈ 23.9 µM)
- MIC-0 [5]: 6.25 µg/mL (≈ 23.9 µM)
- MIC-0 [6]: 6.25 µg/mL (≈ 23.9 µM)
- MIC-0 [7]: 3.13 µg/mL (≈ 12 µM)
- MIC-0 ([8]; strain H): 3.13 µg/mL (≈ 12 µM)
- MIC-0 ([9]; strain I): 0.39 µg/mL (≈ 1.49 µM)
- MIC-0 ([10]; strain J): 3.13 µg/mL (≈ 12 µM)
- MIC-0 [14]: ≤0.02 µg/mL
- MIC-0 [11]: 0.05 µg/mL (≈ 0.191 µM)
- MIC-0 [12, 27]: ≤0.02 µg/mL
- MIC against Aspergillus strains K-M, range [13]: ≤0.02 to 0.05 µg/mL

SMILES: OC(Cn1cncn1)(Cn1cncn1)c1ccc(F)cc1F [FLC, fluconazole]
- MIC [8, 28]: > 31.2 µg/mL
- MIC [9, 29]: > 31.2 µg/mL
- MIC [10, 30]: 1.95 µg/mL (≈ 6.37 µM)
- MIC [14]: 6.25 µg/mL (≈ 20.4 µM)
- MIC-2 [17]: 62.5^a μg/mL
- MIC-2 [18]: >125^a μg/mL
- MIC-2 [19]: 15.6^a μg/mL
- MIC-2 [20]: >125^a μg/mL
- MIC-2 [21]: >125^a μg/mL
- MIC-2 [22]: 62.5^a μg/mL
- MIC-2 [23]: 62.5^a μg/mL
- MIC-0 [24]: 6.25^a μg/mL

SMILES: O=c1c2ccccc2sn1-c1ccc2ccccc2n1 [Compound 2o]
- solubility in the RPMI 1640 medium [25]: solubility issues

SMILES: CC[C@@H]([C@H](C)O)n1ncn(-c2ccc(N3CCN(c4ccc(OC[C@@H]5CO[C@@](Cn6cncn6)(c6ccc(F)cc6F)C5)cc4)CC3)cc2)c1=O [POS, posaconazole]
- MIC [8, 28]: 0.12 µg/mL (≈ 0.171 µM)
- MIC [9, 29]: 0.06 µg/mL (≈ 0.0856 µM)
- MIC [10, 30]: < 0.03 µg/mL
- MIC [14]: 0.24 µg/mL (≈ 0.342 µM)
- MIC [12, 27]: 0.48 µg/mL (≈ 0.685 µM)
- MIC-2 [17]: 0.5^a μg/mL
- MIC-2 [18]: >62.5^a μg/mL
- MIC-2 [19]: 7.8a μg/mL
- MIC-2 [20]: 31.2^a μg/mL
- MIC-2 [21]: 31.2^a μg/mL
- MIC-2 [22]: 15.6^a μg/mL
- MIC-2 [23]: 15.6^a μg/mL
- MIC-0 [24]: 0.195^a μg/mL

SMILES: O=c1c2ccccc2sn1C12CC3CC(CC(C3)C1)C2 [Compound 3o]
- solubility in the RPMI 1640 medium [25]: not soluble
